# Legend:
# [1] = biological target: T1, ^FIREmate and ^FIREtag (TOM20-ECFP-^FIREmate / mCherry-^FIREtag) (Halorhodospira halophila, UniProt P16113, A30V/C69G/D97P/F96I, form not given/G21E/G25R/K17N/M100R/M109L/Q41L/Q99S/S72T/T101G/V83A/Y94W/Y98T); assay: Stability of the ternary assembly over time at mitochondria, time-lapse confocal microscopy, U2OS cells; format: cell-based; details: 10 μM; 1 image every 2 minutes
# T1 construct: TOM20(1-34)-ECFP-FIREmate and mCherry-FIREtag in HeLa or U2OS cells
# T1 sequence (P16113 1-114 A30V/C69G/D97P/F96I/G21E/G25R/K17N/M100R/M109L/Q41L/Q99S/S72T/T101G/V83A/Y94W/Y98T): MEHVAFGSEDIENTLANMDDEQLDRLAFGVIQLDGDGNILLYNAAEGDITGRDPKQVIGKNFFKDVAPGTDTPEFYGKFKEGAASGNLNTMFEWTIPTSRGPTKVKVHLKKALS
# Protocol: FIGS. 4A-D illustrate the recruitment over time of cytoplasmic proteins to mitochondria with the proximity inducing system described herein. (4A, C) HeLa cells co-expressing mCherry-^FIREtag and Tom20-ECFP-^FIREmate were treated with 10 μM HBR-2,5DM and imaged by time-lapse confocal microscopy at 1 image per 5 seconds. (4B, D) U2OS cells co-expressing mCherry-^FIREtag and Tom20-ECFP-^FIREmate were treated with 10 μM HBR-2,5DM and imaged by time-lapse confocal microscopy at 1 image every 2 minutes. FIG. 4A is a representative time-lapse of the HeLa cells from the addition of HBR-2,5DM at 0 sec (ex/em 488/508-570 nm). […] Scale bars are 20 μm. FIG. 4B is a representative time-lapse of the U2OS cells from the addition of HBR-2,5DM at 0 min (mCherry: ex/em 561/606-675 nm; FIRE: ex/em 488/508-570 nm; ECFP: ex/em 445/455-499 nm). […] Scale bars are 20 μm. FIG. 4C is a graph showing the temporal evolution of the FIRE signal detected in HeLa cells upon addition of HBR-2,5DM at 0 sec. […] FIG. 4D is a graph showing the temporal evolution of the FIRE signal detected in U2OS cells upon addition of HBR-2,5DM at 0 min. […]
# The confocal micrographs were acquired on a Zeiss LSM 980 Laser Scanning Microscope equipped with a plan apochromat 63x/1.4 NA oil immersion objective. […] The images were analyzed using Icy (2.4.0.0) and Fiji (Image J). […]
# [2] = biological target: T2, mCherry-caged^FIREtag / ^FIREmate-ECFP-Giantin (Halorhodospira halophila, UniProt P16113, A30V/C69G/D97P/F96I, form not given/G21E/G25R/K17N/M100R/M109L/Q41L/Q99S/S72T/T101G/V83A/Y94W/Y98T); assay: Recruitment of mCherry-caged^FIREtag to the Golgi, confocal microscopy, HeLa cells; format: cell-based; details: 10 μM
# T2 construct: mCherry-caged FIREtag (PYP 2-114 C69G cage) and FIREmate-ECFP-Giantin in HeLa cells
# T2 sequence (P16113 1-114 A30V/C69G/D97P/F96I/G21E/G25R/K17N/M100R/M109L/Q41L/Q99S/S72T/T101G/V83A/Y94W/Y98T): T1 sequence (P16113 1-114 A30V/C69G/D97P/F96I/G21E/G25R/K17N/M100R/M109L/Q41L/Q99S/S72T/T101G/V83A/Y94W/Y98T)
# Protocol: FIGS. 11A-C illustrate the use of a caged proximity inducing system as described herein. FIG. 11A is a representation of the experimental design wherein HeLa cells co-expressing mCherry-caged^FIREtag and ^FIREmate-ECFP-Giantin were treated with 10 μM of match (i.e., HBR-2,5DM), and imaged by time-lapse confocal microscopy. FIG. 11B is a graph showing the temporal evolution of the FIRE signal detected upon addition of HBR-2,5DM at 0 min, either with ^FIREtag or with caged^FIREtag. Data represents the mean values±SD of 7 cells from n=3 independent experiments. FIG. 11C is a set of representative confocal micrographs of cells before (0 min) and after (9 min) addition of HBR-2,5DM (match1) (mCherry: ex/em 561/606-675 nm; FIRE: ex/em 488/508-570 nm; ECFP: ex/em 445/455-499 nm). […] Scale bars are 20 μm.
# The confocal micrographs were acquired on a Zeiss LSM 980 Laser Scanning Microscope equipped with a plan apochromat 63x/1.4 NA oil immersion objective. […] The images were analyzed using Icy (2.4.0.0) and Fiji (Image J). In short, to track fluorescence signal in a specific organelle, a ROI (region of interest) was determined by masking the signal in the ECFP (Enhanced Cyan Fluorescent Protein) channel with the plug-in HK-means with the following parameters: intensity class equals 100, minimum object size (pixels or px) equals 500, maximum object size (px) equals 1500-3000. […]
compound,measurement,setting,value
"Cc1cc(/C=C2\SC(=S)NC2=O)c(C)cc1O [HBR-2,5DM, (Z)-5-(4-hydroxy-2,5-dimethylbenzylidene)-2-thioxo-1,3-thiazolidin-4-one]",duration of fluorescence detected (stability of the ternary fluorescent assembly),[1],more than 25 minutes
same,"kinetics of ternary assembly formation with caged^FIREtag, compared to ^FIREtag",[2],slower kinetics
same,recruitment of mCherry-caged^FIREtag to the Golgi,[2]; 9 min,efficient recruitment of mCherry-caged^FIREtag to the Golgi
